According to US10441663B2, “Methods for treating cancer” (Bicycle Therapeutics Limited, priority 2016, dated 2019):
*1 amine or outer side, *2 acyl side, *3 side chain or, on linkers, in order; H or OH if unused. Where a SMILES comes first, the peptide text is derived from it. Bridges are numbered along the chain shown (N, C = ends). [ ]: non-standard residue; d: D form. The star is where a group is joined. X1 = COc1cc2cc(c1Cl)N(C)C(=O)C[C@H](OC(=O)[C@H](C)N(C)C(=O)CCSSC(C)CCC(=O)*)[C@]1(C)O[C@H]1[C@H](C)[C@@H]1C[C@@](O)(NC(=O)O1)[C@H](OC)/C=C/C=C(\C)C2; 1Nal = N[C@@H](Cc1cccc2ccccc12)C(=O)O; TBMB = c1c(C[*:1])cc(C[*:3])cc1C[*:2]; Tle = CC(C)(C)[C@H](N)C(=O)O; βAla = NCCC(=O)O; Sar = CNCC(=O)O

Tests used:
SNU-16 xenograft = experiment: In vivo efficacy of BT1718 in SNU-16 xenograft; parameters: species or system Mus Musculus; key to Best response at 10 mg/kg: CR complete response; PR partial response
Method: (§1) The objective of this study was to evaluate the in vivo anti-tumor efficacy of BT1718in treatment of HT1080, NCI-H292, NCI-H1975, MDA-MB-231, HCC1806, RPMI2650, HCT-15, HT-29 and SNU-16 xenograft in BALB/c nude mice.
(§2) The HT1080, NCI-H292, NCI-H1975, MDA-MB-231, HCC1806, RPMI2650, HCT-15, HT-29 and SNU-16 tumor cells were maintained in vitro as a monolayer culture in medium supplemented with 10% heat inactivated fetal bovine serum at 37° C. in an […]. The tumor cells will be routinely subcultured twice weekly by trypsin-EDTA treatment. The cells growing in an exponential growth phase will be harvested and counted for tumor inoculation.
(§3) Mouse was inoculated subcutaneously at the right flank with tumor cells for tumor development. The animals were randomized and treatment was started when the average tumor reaches certain volume for the efficacy study, the inoculating cell amounts and starting tumor size were shown as below in Table 9. The test article administration and the animal numbers in each group were shown in the experimental design in Table 10.
(§4) All the procedures related to animal handling, care and the treatment in the study were performed according to the guidelines of the Association for Assessment and Accreditation of Laboratory Animal Care (AAALAC). At the time of routine monitoring, the animals were daily checked for any effects of tumor growth and treatments on normal behavior such as mobility, food and water consumption (by looking only), body weight gain/loss (body weights were measured every day), eye/hair matting and any other abnormal effect as stated in the protocol. Death and observed clinical signs were recorded on the basis of the numbers of animals within each subset.
(§5) The major endpoint was to see if the tumor growth could be delayed or mice could be cured. Tumor size was measured three times weekly in two dimensions using a caliper, and the volume was expressed in mm^3 using the formula: V=0.5 a×b^2 where a and b are the long and short diameters of the tumor, respectively. The tumor size was then used for calculations of T/C value. The T/C value (in percent) is an indication of antitumor effectiveness; T and C are the mean volumes of the treated and control groups, respectively, on a given day.
(§6) TGI was calculated for each group using the formula: TGI (%)=[1−(Ti−T0)/(Vi−V0)]×100; Ti is the average tumor volume of a treatment group on a given day, T0 is the average tumor volume of the treatment group on the day of treatment start, Vi is the average tumor volume of the vehicle control group on the same day with Ti, and V0 is the average tumor volume of the vehicle group on the day of treatment start.
(§7) Summary statistics, including mean and the standard error of the mean (SEM), are provided for the tumor volume of each group at each time point.
(§8) Statistical analysis of difference in tumor volume among the groups was conducted on the data obtained at the best therapeutic time point after the final dose.
(§9) A one-way ANOVA was performed to compare tumor volume among groups, and when a significant F-statistics (a ratio of treatment variance to the error variance) was obtained, comparisons between groups were carried out with Games-Howell test. All data were analyzed using Prism. P<0.05 was considered to be statistically significant.

RPMI2650 xenograft = experiment: In vivo efficacy of BT1718 in RPMI2650 xenograft; parameters: species or system Mus Musculus; key to Best response at 10 mg/kg: CR complete response; PR partial response
Method: as §1, §2, §3, §4, §5, §6, §7, §8, §9

## COc1cc2cc(c1Cl)N(C)C(=O)C[C@H](OC(=O)[C@H](C)N(C)C(=O)CCSSC(C)CCC(=O)NCCC(=O)N(C)CC(=O)N(C)CC(=O)N(C)CC(=O)N(C)CC(=O)N(C)CC(=O)N(C)CC(=O)N(C)CC(=O)N(C)CC(=O)N(C)CC(=O)N(C)CC(=O)N[C@@H](C)C(=O)N[C@H]1CSCc3cc4cc(c3)CSC[C@H](NC(=O)[C@@H](C)NC(=O)[C@H](Cc3cccc5ccccc35)NC(=O)[C@H](CCC(=O)O)NC(=O)[C@H](CC(N)=O)NC(=O)[C@@H](C)NC1=O)C(=O)N[C@@H](CCC(=O)O)C(=O)N[C@@H](CC(=O)O)C(=O)N[C@@H](Cc1ccccc1)C(=O)N[C@@H](Cc1ccc(O)cc1)C(=O)N[C@@H](CC(=O)O)C(=O)N[C@@H](C(C)(C)C)C(=O)N[C@H](C(N)=O)CSC4)[C@]1(C)O[C@H]1[C@H](C)[C@@H]1C[C@@](O)(NC(=O)O1)[C@H](OC)/C=C/C=C(\C)C2 (stereo partly drawn) [BT1718] ({X1-βAla}-[Sar][Sar][Sar][Sar][Sar][Sar][Sar][Sar][Sar][Sar]AC[dA]NE[1Nal][dA]CEDFYD[Tle]C-NH2; linker 12-18-25 via TBMB (inferred))
SNU-16 xenograft; 1 mpk biw, day 0
  Body Weight: 22.9 ± 0.5 g
  Tumor Volume: 160 ± 24 mm^3
SNU-16 xenograft; 1 mpk biw, day 2
  Body Weight: 22.8 ± 0.5 g
  Tumor Volume: 160 ± 15 mm^3
SNU-16 xenograft; 1 mpk biw, day 4
  Body Weight: 23.0 ± 0.5 g
  Tumor Volume: 140 ± 12 mm^3
SNU-16 xenograft; 1 mpk biw, day 7
  Body Weight: 23.0 ± 0.4 g
  Tumor Volume: 137 ± 13 mm^3
SNU-16 xenograft; 1 mpk biw, day 9
  Body Weight: 22.7 ± 0.5 g
  Tumor Volume: 139 ± 9 mm^3
SNU-16 xenograft; 1 mpk biw, day 11
  Body Weight: 23.0 ± 0.5 g
  Tumor Volume: 142 ± 11 mm^3
SNU-16 xenograft; 1 mpk biw, day 14
  Body Weight: 23.3 ± 0.5 g
  Tumor Volume: 176 ± 9 mm^3
SNU-16 xenograft; 3 mpk biw, day 0
  Body Weight: 22.7 ± 0.3 g
  Tumor Volume: 161 ± 29 mm^3
SNU-16 xenograft; 3 mpk biw, day 2
  Body Weight: 22.1 ± 0.5 g
  Tumor Volume: 115 ± 13 mm^3
SNU-16 xenograft; 3 mpk biw, day 4
  Body Weight: 21.8 ± 0.2 g
  Tumor Volume: 36 ± 4 mm^3
SNU-16 xenograft; 3 mpk biw, day 7
  Body Weight: 21.5 ± 0.3 g
  Tumor Volume: 25 ± 4 mm^3
SNU-16 xenograft; 3 mpk biw, day 9
  Body Weight: 20.0 ± 0.1 g
  Tumor Volume: 18 ± 1 mm^3
SNU-16 xenograft; 3 mpk biw, day 11
  Body Weight: 20.2 ± 0.6 g
  Tumor Volume: 5 ± 3 mm^3
SNU-16 xenograft; 3 mpk biw, day 14
  Body Weight: 20.6 ± 0.6 g
  Tumor Volume: 0 ± 0 mm^3
SNU-16 xenograft; SNU-16, 10 mg/kg
  Best response at 10 mg/kg: CR
SNU-16 xenograft; SNU-16, 1 mpk, biw, day 14
  TGI: 51.4%
  Tumor Volume: 304 ± 43 mm^3
SNU-16 xenograft; SNU-16, 3 mpk, biw, day 14
  TGI: 94.5%
  Tumor Volume: 176 ± 9 mm^3
SNU-16 xenograft; SNU-16, 10 mpk, biw, day 14
  TGI: 155%
  Tumor Volume: 0 ± 0 mm^3
SNU-16 xenograft; SNU-16, dose leading to tumor-stasis
  Minimally Effective Dose IV BIW: 3 mg/kg
SNU-16 xenograft; after 10 mg/kg biw
  dosing suspension until re-growth to 150 mm3: 7 weeks
SNU-16 xenograft; after 2 weeks 10 mg/kg biw
  tumor response: completely regressed
SNU-16 xenograft; mouse, in vivo
  dosing time until tumor regression on resumed treatment: 1-2 weeks
RPMI2650 xenograft; 10 mg/kg biw
  tumor response: significant tumor inhibition effect, but didn't cause tumor regression
RPMI2650 xenograft; 1 mpk biw, day 0
  Body Weight: 21.8 ± 0.5 g
  Tumor Volume: 146 ± 5 mm^3
RPMI2650 xenograft; 1 mpk biw, day 2
  Body Weight: 22.1 ± 0.6 g
  Tumor Volume: 159 ± 9 mm^3
RPMI2650 xenograft; 1 mpk biw, day 4
  Body Weight: 22.1 ± 0.7 g
  Tumor Volume: 213 ± 23 mm^3
RPMI2650 xenograft; 1 mpk biw, day 7
  Body Weight: 22.6 ± 0.5 g
  Tumor Volume: 362 ± 34 mm^3
RPMI2650 xenograft; 1 mpk biw, day 9
  Body Weight: 22.8 ± 0.5 g
  Tumor Volume: 470 ± 68 mm^3
RPMI2650 xenograft; 1 mpk biw, day 11
  Body Weight: 22.6 ± 0.6 g
  Tumor Volume: 614 ± 96 mm^3
RPMI2650 xenograft; 1 mpk biw, day 14
  Body Weight: 23.1 ± 0.8 g
  Tumor Volume: 833 ± 126 mm^3
RPMI2650 xenograft; 3 mpk biw, day 0
  Body Weight: 22.1 ± 0.7 g
  Tumor Volume: 147 ± 11 mm^3
RPMI2650 xenograft; 3 mpk biw, day 2
  Body Weight: 21.9 ± 0.8 g
  Tumor Volume: 164 ± 20 mm^3
RPMI2650 xenograft; 3 mpk biw, day 4
  Body Weight: 21.4 ± 0.6 g
  Tumor Volume: 220 ± 23 mm^3
RPMI2650 xenograft; 3 mpk biw, day 7
  Body Weight: 21.9 ± 0.8 g
  Tumor Volume: 365 ± 10 mm^3
RPMI2650 xenograft; 3 mpk biw, day 9
  Body Weight: 21.4 ± 0.7 g
  Tumor Volume: 447 ± 18 mm^3
RPMI2650 xenograft; 3 mpk biw, day 11
  Body Weight: 20.7 ± 0.8 g
  Tumor Volume: 576 ± 19 mm^3
RPMI2650 xenograft; 3 mpk biw, day 14
  Body Weight: 21.0 ± 0.7 g
  Tumor Volume: 724 ± 28 mm^3
RPMI2650 xenograft; 10 mpk biw, day 0
  Body Weight: 22.0 ± 0.3 g
  Tumor Volume: 147 ± 7 mm^3
RPMI2650 xenograft; 10 mpk biw, day 2
  Body Weight: 21.2 ± 0.1 g
  Tumor Volume: 151 ± 10 mm^3
RPMI2650 xenograft; 10 mpk biw, day 4
  Body Weight: 20.6 ± 0.5 g
  Tumor Volume: 190 ± 25 mm^3
RPMI2650 xenograft; 10 mpk biw, day 7
  Body Weight: 21.1 ± 0.4 g
  Tumor Volume: 198 ± 38 mm^3
RPMI2650 xenograft; 10 mpk biw, day 9
  Body Weight: 19.9 ± 0.3 g
  Tumor Volume: 165 ± 42 mm^3
RPMI2650 xenograft; 10 mpk biw, day 11
  Body Weight: 19.2 ± 0.3 g
  Tumor Volume: 155 ± 54 mm^3
RPMI2650 xenograft; 10 mpk biw, day 14
  Body Weight: 19.6 ± 0.7 g
  Tumor Volume: 131 ± 49 mm^3
RPMI2650 xenograft; RPMI2650, 10 mg/kg
  Best response at 10 mg/kg: PR
RPMI2650 xenograft; RPMI2650, 1 mpk, biw, day 14
  TGI: 4.5%
  Tumor Volume: 833 ± 126 mm^3
RPMI2650 xenograft; RPMI2650, 3 mpk, biw, day 14
  TGI: 19.8%
  Tumor Volume: 724 ± 28 mm^3
RPMI2650 xenograft; RPMI2650, 10 mpk, biw, day 14
  TGI: 102.1%
  Tumor Volume: 131 ± 49 mm^3
RPMI2650 xenograft; RPMI2650, dose leading to tumor-stasis
  Minimally Effective Dose IV BIW: 10 mg/kg
